In paper PMC11856108, “Capsaicin (But Not Other Vanillins) Enhances Estrogen Binding to Its Receptor: Implications for Power Sports and Cancers” (Life, 2025):
Read-outs that look alike come from different tables or passages of the source.

How the values were obtained:
[1] = Binding to steroid hormone by UV spectroscopy
Experimental: (§1) UV spectroscopy in a crystal plate was used to investigate whether CAP has specificity for estrogen alone or whether it can bind to other naturally occurring hormones. To start, CAP was dissolved in a 1:1 solution of water to ethanol at 1 mg/mL ( 3.27×10^−3 M ) and then diluted by thirds eight times. Next, the hormones were dissolved in a 1:1 solution of water to ethanol at a 1/100 dilution. An amount of 50 μL of each CAP dilution was added to 3 wells of a crystal plate, with one well serving as the control, with another 50 μL of 1:1 water to ethanol added, and the other two serving as experimental duplicates, with 50 μL of the prepared hormone solution added. Then, two additional wells were prepared to serve as controls: one containing 100 μL of 1:1 water to ethanol and the other containing 50 μL of prepared hormone solution and 50 μL of 1:1 water to ethanol. Finally, the plate was incubated for 1 h and read in a Spectramax UV-VIS scanning spectrophotometer, spanning wavelengths from 190 to 400 nm. Data analysis involved the subtraction of observed absorbance values from expected absorbance values generated from the control wells ([CAP + 1:1 solution] + [hormone + 1:1 solution] − [1:1 solution]) and plotting them as a function of CAP concentration. Because the solvent (1:1 solution of water–ethanol) was used as a control and subtracted from all wells, the resulting data reflected only the absorbances of the solute compounds. Since each compound has a different lambda maximal absorbance, analysis of the resulting data required finding one common wavelength at which the additions and subtractions of the spectra could be carried out and at which the absorbance of each compound was maximized.
Experiments were also performed to test whether the enhancement or antagonism observed in estradiol binding to the ESR1 might be due to vanilloid compounds binding directly to estradiol or to related steroidal hormones, perhaps protecting them from oxidation or forming a complex that prevented the estradiol binding to its receptor. No vanilloid compound bound to a measurable degree to estradiol or any other steroidal hormone tested.

[2] = target: insulin (human recombinant) (Homo sapiens, UniProt P01308); test: Binding to insulin by ultraviolet spectroscopy; settings: UV spectroscopy
Sequence of insulin (human recombinant) (P01308 25-54 limits assumed): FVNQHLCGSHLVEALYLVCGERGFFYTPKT
Sequence of insulin (human recombinant) (P01308 90-110 limits assumed): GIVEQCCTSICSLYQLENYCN

[3] = target: T1, Estrogen receptor alpha (ER alpha) recombinant protein (ESR1) (Homo sapiens, UniProt P03372); test: Binding to the estrogen receptor by ultraviolet spectroscopy; settings: UV spectroscopy; listed as vanillin
T1 sequence (P03372 1-595): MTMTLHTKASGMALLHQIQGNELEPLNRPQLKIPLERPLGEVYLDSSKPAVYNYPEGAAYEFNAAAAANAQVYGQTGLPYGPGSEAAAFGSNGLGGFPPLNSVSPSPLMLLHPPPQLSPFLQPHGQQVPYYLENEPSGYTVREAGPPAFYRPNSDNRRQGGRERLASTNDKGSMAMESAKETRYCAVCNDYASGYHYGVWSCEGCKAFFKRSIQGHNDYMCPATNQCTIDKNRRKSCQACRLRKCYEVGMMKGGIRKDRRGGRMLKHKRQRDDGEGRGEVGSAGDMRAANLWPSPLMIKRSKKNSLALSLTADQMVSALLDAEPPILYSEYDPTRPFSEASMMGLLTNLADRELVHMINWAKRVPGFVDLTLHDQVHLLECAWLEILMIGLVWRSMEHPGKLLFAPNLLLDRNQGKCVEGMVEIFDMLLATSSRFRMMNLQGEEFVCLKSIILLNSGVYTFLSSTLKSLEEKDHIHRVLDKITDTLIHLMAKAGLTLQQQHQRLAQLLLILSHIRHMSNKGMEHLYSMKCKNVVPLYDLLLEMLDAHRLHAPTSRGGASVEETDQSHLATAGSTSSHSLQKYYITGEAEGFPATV

[4] = target: insulin receptor (IR) (Homo sapiens, UniProt P06213); test: Binding to the insulin receptor by ultraviolet spectroscopy; settings: UV spectroscopy
Sequence of insulin receptor (IR) (P06213 28-1382, species assumed): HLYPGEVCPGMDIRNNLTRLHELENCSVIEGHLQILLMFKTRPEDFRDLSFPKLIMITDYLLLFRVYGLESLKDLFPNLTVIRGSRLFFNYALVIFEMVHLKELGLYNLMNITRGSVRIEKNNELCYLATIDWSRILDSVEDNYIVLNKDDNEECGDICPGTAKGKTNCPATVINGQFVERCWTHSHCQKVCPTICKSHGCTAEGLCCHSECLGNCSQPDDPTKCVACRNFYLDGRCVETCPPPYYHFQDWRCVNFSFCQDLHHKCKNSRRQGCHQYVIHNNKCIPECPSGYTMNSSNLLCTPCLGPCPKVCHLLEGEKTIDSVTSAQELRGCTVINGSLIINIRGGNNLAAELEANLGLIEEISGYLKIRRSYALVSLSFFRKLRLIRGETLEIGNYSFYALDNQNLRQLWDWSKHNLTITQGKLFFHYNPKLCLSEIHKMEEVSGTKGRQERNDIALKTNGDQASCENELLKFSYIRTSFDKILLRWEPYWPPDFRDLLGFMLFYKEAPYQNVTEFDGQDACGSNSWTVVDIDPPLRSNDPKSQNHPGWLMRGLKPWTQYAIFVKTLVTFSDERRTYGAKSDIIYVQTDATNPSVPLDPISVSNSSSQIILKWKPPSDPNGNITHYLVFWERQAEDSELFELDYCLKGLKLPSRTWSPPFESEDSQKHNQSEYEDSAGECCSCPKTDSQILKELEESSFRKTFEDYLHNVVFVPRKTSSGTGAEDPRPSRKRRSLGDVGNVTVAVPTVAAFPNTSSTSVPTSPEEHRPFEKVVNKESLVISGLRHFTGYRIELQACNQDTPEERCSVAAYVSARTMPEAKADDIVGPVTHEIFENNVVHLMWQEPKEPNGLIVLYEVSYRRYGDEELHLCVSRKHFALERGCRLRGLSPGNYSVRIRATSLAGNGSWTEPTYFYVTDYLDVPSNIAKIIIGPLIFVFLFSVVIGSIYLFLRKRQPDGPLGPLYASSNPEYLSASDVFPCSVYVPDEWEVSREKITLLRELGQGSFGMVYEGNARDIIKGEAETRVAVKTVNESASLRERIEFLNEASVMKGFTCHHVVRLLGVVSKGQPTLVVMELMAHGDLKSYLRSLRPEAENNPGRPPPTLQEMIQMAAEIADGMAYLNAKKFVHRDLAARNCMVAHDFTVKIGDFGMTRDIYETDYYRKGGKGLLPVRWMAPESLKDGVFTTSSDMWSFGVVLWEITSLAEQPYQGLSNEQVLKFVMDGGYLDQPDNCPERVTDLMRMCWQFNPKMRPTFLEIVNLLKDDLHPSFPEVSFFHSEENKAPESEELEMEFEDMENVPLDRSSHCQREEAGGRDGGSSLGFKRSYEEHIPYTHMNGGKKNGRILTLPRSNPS
Experimental: as §1
[17, 19, 20, 21, 22, 23]. […] Because CAP binds to INS, it was possible that it might antagonize INS binding to its receptor. […] Two types of ultraviolet spectroscopy experiments were performed. In one, INS (1 µM) and the IR were kept constant and the concentration of CAP increased from 0.1 µM to 100 µM. In the other, the CAP (25 µM) and IR were kept constant and the concentration of INS increased from 10 nM to 10 µM. In neither experiment was any significant change in the INS binding curve observed.
CAP did bind to the ESR1 with what appears to be a high affinity (Kd = 0.9 µM) and a lower affinity (Kd = 10 µM) site. […] Other vanilloid compounds also bound to the ESR1 but with lower affinity than CAP (Figure 6). None bound to the IR.

[5] = target: T2, ESR1 (Homo sapiens, UniProt P03372); test: Competitive-binding ELISA of EST-HRP binding to the estrogen receptor
T2 construct: purchased Invitrogen-Thermofisher
T2 sequence (P03372 1-595): T1 sequence (P03372 1-595)

Binding (Kd) 4-Androstene-3,17-dione [1]	Binding (Kd) 5-Pregnan-3β-OL-2O-one [1]	Binding (Kd) Estradiol [1]	Binding (Kd) Estriol [1]	Binding (Kd) Progesterone [1]	Binding (Kd) Estradiol ([1]; listed as acetaminophen)	Binding (Kd) Estradiol ([1]; listed as vanillic acid)	Kd ([2]; Binding (Kd) Insulin, Table 1) [µM]	binding to the estrogen receptor (in words) [3]	Binding (Kd) Estradiol ([1]; listed as vanillin)	binding to the insulin receptor (in words) [4]	effect on estradiol (EST-HRP) binding to the estrogen receptor [5]	Structure (SMILES)	binding to insulin (in words) [2]	effect on estradiol (EST-HRP) binding to the estrogen receptor ([5]; listed as VAN)	binding to insulin (in words) ([2]; listed as vanillin)
No binding	No binding	No binding	No binding	No binding	did not bind directly to estradiol							CC(=O)Nc1ccc(O)cc1 [Acetaminophen, acetaminophen]	Neither vanillin nor acetaminophen bound significantly to insulin		
No binding	No binding	No binding	No binding	No binding		did not bind directly to estradiol	4					COc1cc(C(=O)O)ccc1O [Van Acid, vanillic acid]	bound almost as well as capsaicin		
No binding	No binding	No binding	No binding	No binding				weakly to the estrogen receptor	did not bind directly to estradiol	did not bind significantly	no effect on estradiol binding	COc1cc(C=O)ccc1O [Vanillin, vanillin]		no significant effect on estradiol binding	Neither vanillin nor acetaminophen bound significantly to insulin
										did not bind to the IR		C[C@]12CC[C@@H]3c4ccc(O)cc4CC[C@H]3[C@@H]1CC[C@@H]2O [estradiol]			
